Data on 50 molecules can be found in patent US7557098B2, “1-aryl- or 1-alkylsulfonyl-heterocyclylbenzazoles as 5-hydroxytryptamine-6 ligands” (Wyeth, priority 2000, dated 2009).

Counter-ions that a name gives are not always drawn. Like-named read-outs stand apart in the source and are kept apart here.

The target of data set [1] is T1, human cloned 5-HT6 receptors (Homo sapiens, UniProt P50406).
T1 construct: expressed in transfected cells; host or cells: Hela cells
The data set can be described thus: 5-HT6 binding affinity, [3H]-LSD displacement on membranes of Hela cells expressing human cloned 5-HT6 receptors.

[2] abbreviates: [3H]-LSD 3.0 nM, Hela cell membranes, 120 min at room temperature, read-out: 5-HT6 binding Ki.

T1 sequence (P50406 whole entry): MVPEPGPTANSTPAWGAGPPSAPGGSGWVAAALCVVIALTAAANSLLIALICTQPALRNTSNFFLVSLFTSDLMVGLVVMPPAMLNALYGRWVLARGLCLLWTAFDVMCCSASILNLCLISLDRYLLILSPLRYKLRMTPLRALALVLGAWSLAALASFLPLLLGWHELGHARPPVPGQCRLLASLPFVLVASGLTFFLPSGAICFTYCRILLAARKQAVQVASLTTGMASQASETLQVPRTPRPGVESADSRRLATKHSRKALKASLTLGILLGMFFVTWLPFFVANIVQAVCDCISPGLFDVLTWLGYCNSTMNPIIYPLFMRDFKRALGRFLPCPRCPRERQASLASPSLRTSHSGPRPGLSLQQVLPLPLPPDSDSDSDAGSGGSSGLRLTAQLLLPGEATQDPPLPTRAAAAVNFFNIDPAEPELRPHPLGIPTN

What is called Ki is a measure of affinity in units of concentration, obtained from inhibition or displacement. Consider `O=S(=O)(c1ccccc1Br)n1ccc2c(N3CCNCC3)cccc21` [Example 2], for which the Ki in data set [1] was determined as 2 nM.

On to `O=S(=O)(c1c(Cl)nc2sccn12)n1ccc2c(N3CCNCC3)cccc21` [Example 3], for which the Ki in data set [1] came out at 1 nM.

`Nc1ccc(S(=O)(=O)n2ccc3c(N4CCNCC4)cccc32)cc1` [Example 5] displayed a Ki in data set [1] of 1 nM.

In data set [1], `O=S(=O)(c1ccccc1)n1ccc2c(N3CCN(C4=NCCN4)CC3)cccc21` [Example 14, 4-[4-(4,5-Dihydro-1H-imidazol-2-yl)-piperazin-1-yl]-1-(phenylsulfonyl)-1H-indole] showed a Ki of 24 nM.

Regarding `Nc1ccc(S(=O)(=O)n2ccc3c(N4CCN(C5=NCCN5)CC4)cccc32)cc1` [Example 18], the inhibition constant (Ki) in data set [1] (setting [2]) turned out to be 6 nM.

Take `O=S(=O)(c1c(Cl)nc2sccn12)n1ccc2c(N3CCN(Cc4ccccc4)CC3)cccc21` [Example 27]: the Ki in data set [1] (setting [2]) amounted to 56 nM.

Consider `CC(=O)N1CCN(c2cccc3c2ccn3S(=O)(=O)c2c(Cl)nc3sccn23)CC1` [Example 30], for which the Ki in data set [1] (setting [2]) came to 220 nM.

For the molecule `COc1ccc(S(=O)(=O)n2ccc3c(N4CCN(Cc5cccc([N+](=O)[O-])c5)CC4)cccc32)cc1OC` [Example 33], in data set [1] (setting [2]), the Ki amounted to 45 nM.

Regarding `Nc1ccc(S(=O)(=O)n2ccc3c(N4CCN(Cc5ccccc5)CC4)cccc32)cc1` [Example 35], the inhibition constant Ki in data set [1] (setting [2]) was 15 nM.

Consider `CN1CCN(c2cccc3c2ccn3S(=O)(=O)c2ccc(N)cc2)CC1` [Example 36], for which the Ki in data set [1] (setting [2]) is 3 nM.

In the case of `Nc1ccc(S(=O)(=O)n2ccc3c(N4CCN(Cc5ccc(Cl)s5)CC4)cccc32)cc1` [Example 37], in data set [1] (setting [2]), the Ki was found to be 59 nM.

Turning to `Nc1ccc(S(=O)(=O)n2ccc3c(N4CCN(Cc5cccc([N+](=O)[O-])c5)CC4)cccc32)cc1` [Example 38], the Ki in data set [1] (setting [2]) turned out to be 5 nM.

For the molecule `O=S(=O)(c1ccccc1)n1ccc2c(N3CCN(Cc4ccncc4)CC3)cccc21` [Example 40], the Ki in data set [1] (setting [2]) worked out at 4 nM.

For `O=S(=O)(c1ccccc1)n1ccc2c(N3CCN(Cc4cccnc4)CC3)cccc21` [Example 41], the Ki in data set [1] (setting [2]) worked out at 7 nM.

For the molecule `COc1cccc(CN2CCN(c3cccc4c3ccn4S(=O)(=O)c3ccccc3Br)CC2)c1` [Example 42], the Ki in data set [1] (setting [2]) amounted to 4 nM.

Consider `O=S(=O)(c1ccccc1Br)n1ccc2c(N3CCN(Cc4ccncc4)CC3)cccc21` [Example 43], for which the Ki in data set [1] (setting [2]) was 7 nM.

As to `O=S(=O)(c1ccccc1Br)n1ccc2c(N3CCN(Cc4cccnc4)CC3)cccc21` [Example 44], the Ki in data set [1] (setting [2]) was 1 nM.

Consider `O=S(=O)(c1c(Cl)nc2sccn12)n1ccc2c(N3CCN(Cc4ccncc4)CC3)cccc21` [Example 46], for which, in data set [1] (setting [2]), the Ki is 5 nM.

On to `O=S(=O)(c1c(Cl)nc2sccn12)n1ccc2c(N3CCN(Cc4cccnc4)CC3)cccc21` [Example 47], for which the Ki in data set [1] (setting [2]) was 6 nM.

`COc1cccc(CN2CCN(c3cccc4c3ccn4S(=O)(=O)c3ccc(OC)c(OC)c3)CC2)c1` [Example 48]: the Ki in data set [1] (setting [2]) was 14 nM.

For the molecule `COc1ccc(S(=O)(=O)n2ccc3c(N4CCN(Cc5ccncc5)CC4)cccc32)cc1OC` [Example 49], in data set [1] (setting [2]), the Ki is 10 nM.

As for `COc1ccc(S(=O)(=O)n2ccc3c(N4CCN(Cc5cccnc5)CC4)cccc32)cc1OC` [Example 50], the inhibition constant (Ki) in data set [1] (setting [2]) worked out at 17 nM.

On to `COc1cccc(CN2CCN(c3cccc4c3ccn4S(=O)(=O)c3ccc(N)cc3)CC2)c1` [Example 51], for which the Ki in data set [1] (setting [2]) stood at 7 nM.

`Nc1ccc(S(=O)(=O)n2ccc3c(N4CCN(Cc5ccncc5)CC4)cccc32)cc1` [Example 52]: in data set [1] (setting [2]), the Ki was 25 nM.

As to `Nc1ccc(S(=O)(=O)n2ccc3c(N4CCN(Cc5cccnc5)CC4)cccc32)cc1` [Example 53], the inhibition constant (Ki) in data set [1] (setting [2]) was 4 nM.

Consider `O=S(=O)(c1ccccc1)n1ncc2c(N3CCN(Cc4ccccc4)CC3)cccc21` [Example 57, 4-(4-Benzylpiperazin-1-yl)-1-(phenylsulfonyl)-1H-indazole hydrochloride], for which the Ki in data set [1] (setting [2]) came out at 14 nM.

With `O=S(=O)(c1ccccc1)n1ncc2c(N3CCNCC3)cccc21` [Example 58, 1-(Phenylsulfonyl)-4-(1-piperazinyl)-1H-indazole hydrochloride], the Ki in data set [1] was 0.3 nM.

As for `O=S(=O)(c1ccccc1)n1ncc2c(N3CCN(CCc4ccccc4)CC3)cccc21` [Example 59, 4-[4-(2-phenylethyl)piperazin-1-yl]-1-(phenylsulfonyl)-1H-indazole hydrochloride], in data set [1] (setting [2]), the Ki worked out at 1 nM.

As a reminder, the melting point is the temperature, or range, at which the solid turns liquid. Regarding `O=S(=O)(c1ccccc1)n1ncc2c(N3CCN(CCOc4ccc(F)cc4)CC3)cccc21` [Example 60], the melting point fell in the range of 184 to 186 °C. The inhibition constant Ki in data set [1] (setting [2]) is 306 nM.

As to `O=C(CCCN1CCN(c2cccc3c2cnn3S(=O)(=O)c2ccccc2)CC1)c1ccc(F)cc1` [Example 61], the Ki in data set [1] (setting [2]) came to 3 nM.

On to `O=C(CN1CCN(c2cccc3c2cnn3S(=O)(=O)c2ccccc2)CC1)c1ccccc1` [Example 62], for which the melting point lay within 202 to 205 °C. Besides, the Ki in data set [1] (setting [2]) was 12 nM.

The molecule `O=S(=O)(c1ccccc1)n1ncc2c(N3CCN(CCCc4ccccc4)CC3)cccc21` [Example 63] had a melting point of 188 to 190 °C. Moreover, the inhibitory constant (Ki) in data set [1] (setting [2]) was 6 nM.

Molecule `CCCN1CCN(c2cccc3c2cnn3S(=O)(=O)c2ccccc2)CC1` [Example 64] had a melting point of 258 to 260 °C. Further, in data set [1] (setting [2]), the Ki amounted to 2 nM.

In turn, `O=S(=O)(C=Cc1ccccc1)n1ncc2c(N3CCN(Cc4ccccc4)CC3)cccc21` [Example 65] yielded a melting point of 233 to 235 °C. In addition, the Ki in data set [1] (setting [2]) amounted to 172 nM.

Regarding `O=S(=O)(c1ccc(F)cc1)n1ncc2c(N3CCN(Cc4ccccc4)CC3)cccc21` [Example 66], the melting point lay within 240 to 241 °C. Moreover, the Ki in data set [1] (setting [2]) was determined as 84 nM.

With `O=S(=O)(c1ccc(Cl)cc1)n1ncc2c(N3CCN(Cc4ccccc4)CC3)cccc21` [Example 67], the melting point fell in the range of 238 to 239 °C. In addition, the Ki in data set [1] (setting [2]) was 87 nM.

`COc1ccc(S(=O)(=O)n2ncc3c(N4CCN(Cc5ccccc5)CC4)cccc32)cc1` [Example 69] gave a melting point of 206 to 209 °C. Moreover, in data set [1] (setting [2]), the inhibition constant Ki worked out at 116 nM.

`O=S(=O)(c1ccc(OC(F)(F)F)cc1)n1ncc2c(N3CCN(Cc4ccccc4)CC3)cccc21` [Example 70] displayed a melting point of 229 to 231 °C. Further, in data set [1] (setting [2]), the Ki was found to be 251 nM.

As to `O=S(=O)(c1cc(Cl)c(Cl)s1)n1ncc2c(N3CCN(Cc4ccccc4)CC3)cccc21` [Example 71], the melting point was 235 to 237 °C. Further, in data set [1] (setting [2]), the Ki was found to be 81 nM.

In the case of `Cc1ccc(S(=O)(=O)n2ncc3c(N4CCN(Cc5ccccc5)CC4)cccc32)cc1` [Example 72], the melting point was 215 to 217 °C. Besides, in data set [1] (setting [2]), the inhibition constant Ki is 56 nM.

On to `Nc1ccc(S(=O)(=O)n2ccc3cc(N4CCNCC4)ccc32)cc1` [Example 73, 1-(4-Aminophenylsulfonyl)-5-piperazin-1-yl-1H-indole hydrochloride], for which, in data set [1] (setting [2]), the Ki was 34 nM.

`O=S(=O)(c1ccc(Br)cc1)n1ncc2cc(N3CCNCC3)ccc21` [Example 79]: the Ki in data set [1] (setting [2]) is 19 nM.

With `O=S(=O)(c1ccc(Br)s1)n1ncc2cc(N3CCNCC3)ccc21` [Example 81], the Ki in data set [1] came out at 44 nM.

Turning to `CCCCOc1ccc(S(=O)(=O)n2ccc3cc(N4CCNCC4)ccc32)cc1` [Example 83], the Ki in data set [1] (setting [2]) came to 38 nM.

Turning to `Cc1nn(C)c(Cl)c1S(=O)(=O)n1ccc2cc(N3CCNCC3)ccc21` [Example 86], the Ki in data set [1] (setting [2]) was 44 nM.

With `Cc1c(S(=O)(=O)n2ncc3ccc(N4CCNCC4)cc32)sc2ccc(Cl)cc12` [Example 89], in data set [1] (setting [2]), the Ki worked out at 24 nM.

As to `O=S(=O)(c1cc(Cl)c(Cl)s1)n1ncc2cc(N3CCNCC3)ccc21` [Example 90], the Ki in data set [1] (setting [2]) was 30 nM.

Turning to `O=S(=O)(c1cc(Cl)c(Cl)s1)n1ncc2ccc(N3CCNCC3)cc21` [Example 91], in data set [1] (setting [2]), the Ki came to 6 nM.

Take `O=S(=O)(c1ccc2ccccc2c1)n1ncc2ccc(N3CCNCC3)cc21` [Example 96]: in data set [1] (setting [2]), the Ki turned out to be 37 nM.

`O=S(=O)(c1ccc(I)cc1)n1ncc2cc(N3CCNCC3)ccc21` [Example 101]: the Ki in data set [1] (setting [2]) was found to be 18 nM.
